These results are taken from PubChem BioAssay (NCI).

Test systems include 786-0 renal; HCT-116 colon; HL-60(TB) leukemia; HOP-62 NSCLC; OVCAR-8 ovarian; RXF 393 renal; SK-MEL-28 melanoma; SN12C renal; SW-620 colon; HS 578T breast; MDA-MB-231 breast.
What all share (assay): NCI tumour cell line growth inhibition, 48 h

The structures appear in SMILES notation.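 Grown in 96-well plates, cells were treated for 48 hours with each compound at five concentrations. Insufficient inhibition: endpoint recorded as highest concentration tested. Abbreviation: GI50, concentration required for 50% inhibition of growth. At the TGI there is no net growth.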 A value given as a limit tells only on which side of the number the result lay.

As for `O=Cc1c[nH]c2c(=O)[nH]cnc12`, the TGI with 786-0 renal, in the test on HCT-116 colon, with HL-60(TB) leukemia, with HOP-62 NSCLC, in the test on OVCAR-8 ovarian and with RXF 393 renal was more than 100 µM throughout. Further, the TGI in the test on SK-MEL-28 melanoma, in the test with SN12C renal and in the test with SW-620 colon was more than 100 µM each time.

Turning to `CCS(=O)C(=O)N(O)c1ccc(Cl)cc1` (centres undefined), the TGI with 786-0 renal is 64.3 µM; with HCT-116 colon, more than 100 µM; in the test with HOP-62 NSCLC it was more than 100 µM; in the test on HS 578T breast, more than 100 µM; in the test on MDA-MB-231 breast, more than 100 µM; in the test on RXF 393 renal, 41.6 µM. For the same compound, the TGI was determined as 35.6 µM in the test on SK-MEL-28 melanoma, 43 µM with SN12C renal and 46 µM in the test with SW-620 colon.

Consider `CC(=O)OI1NC(=O)c2ccccc21`, for which the TGI in the test on 786-0 renal, in the test with HCT-116 colon, in the test on HL-60(TB) leukemia, in the test with HOP-62 NSCLC, with HS 578T breast and with MDA-MB-231 breast was more than 100 µM in each case. Moreover, the TGI with OVCAR-8 ovarian, in the test with SK-MEL-28 melanoma, in the test on SN12C renal and in the test with SW-620 colon was more than 100 µM throughout.

`Nc1nc2c(N)cc(C(F)(F)F)cc2nc1-c1ccccc1`: the TGI in the test with 786-0 renal, in the test on HCT-116 colon, in the test with HL-60(TB) leukemia, in the test on HOP-62 NSCLC, in the test with OVCAR-8 ovarian and with RXF 393 renal was more than 100 µM throughout. For the same compound, the TGI with SK-MEL-28 melanoma, in the test with SN12C renal and in the test on SW-620 colon was more than 100 µM in each case.

Turning to `Clc1ccc(Nc2nnc(CNc3ccc(-c4nnc(Nc5ccc(Cl)cc5)s4)cc3)s2)cc1`, the TGI is 75.1 µM in the test with 786-0 renal; 30.8 µM in the test on HCT-116 colon; more than 100 µM in the test on HOP-62 NSCLC; more than 100 µM in the test on MDA-MB-231 breast; more than 100 µM with RXF 393 renal; more than 100 µM in the test on SK-MEL-28 melanoma. Moreover, the TGI in the test on SN12C renal and with SW-620 colon was more than 100 µM each time.

With `O[C@]12C=C(c3nccc4c3[nH]c3ccccc34)[C@@H]3CCN(CCCC/C=C\CC1)C[C@@]31CC3/C=C\CCCCN3[C@H]12` (some centres undefined), the TGI in the test on 786-0 renal was found to be 0.615 µM; in the test with HCT-116 colon, 0.647 µM; in the test with HL-60(TB) leukemia, 1.08 µM; with HOP-62 NSCLC, 0.525 µM; in the test with HS 578T breast it was 2.9 µM; in the test with MDA-MB-231 breast it was 1.84 µM. In addition, the TGI with OVCAR-8 ovarian was 1.51 µM; in the test on SK-MEL-28 melanoma it was 2.76 µM; with SN12C renal, 2.84 µM; in the test with SW-620 colon it was 4.65 µM.

As to `C=CCCC1(O)C(O)C(CO)O[C@H](O[C@@]2(CO)OC(CO)C(O)C2O)C1O` (some centres undefined), the TGI in the test with 786-0 renal, with HCT-116 colon, in the test with HL-60(TB) leukemia, in the test with HOP-62 NSCLC, in the test on MDA-MB-231 breast and with OVCAR-8 ovarian was more than 100 µM throughout. Further, the TGI with SK-MEL-28 melanoma, in the test with SN12C renal and in the test on SW-620 colon was more than 100 µM throughout.

In the case of `CCOC1=C2N=C(C(CC)c3ccccc3F)N=C2C(=O)c2ccccc21` (centres undefined), the TGI with 786-0 renal is more than 100 µM; with HCT-116 colon, more than 100 µM; in the test on HL-60(TB) leukemia, more than 100 µM; with HOP-62 NSCLC it was more than 100 µM; with OVCAR-8 ovarian it was more than 100 µM; with RXF 393 renal, 74.8 µM. Moreover, the TGI in the test with SK-MEL-28 melanoma, in the test on SN12C renal and with SW-620 colon was more than 100 µM in each case.

For `O=C(CNc1ccccn1)Nn1cnc2ccc(S(=O)(=O)Nc3ccccn3)cc2c1=O`, the TGI in the test on 786-0 renal, with HCT-116 colon, in the test with HL-60(TB) leukemia, in the test on HOP-62 NSCLC, in the test with HS 578T breast and with MDA-MB-231 breast was more than 100 µM each time. The TGI in the test with OVCAR-8 ovarian, in the test with SK-MEL-28 melanoma, in the test on SN12C renal and in the test on SW-620 colon was more than 100 µM each time.

Regarding `COc1ccc(C2=Nc3c(nc(OC)[nH]c3=O)NC(c3ccccc3)C2)cc1` (centres undefined), the TGI in the test with 786-0 renal is 93.6 µM; in the test with HCT-116 colon, more than 100 µM; in the test on HL-60(TB) leukemia, 56.9 µM; in the test on HOP-62 NSCLC, more than 100 µM; with MDA-MB-231 breast it was 53.4 µM; in the test with OVCAR-8 ovarian it was 54.4 µM. The TGI was 63.9 µM with RXF 393 renal, 42.7 µM in the test with SK-MEL-28 melanoma, 62.6 µM in the test on SN12C renal and 72.4 µM in the test on SW-620 colon.

In the case of `CC1(C)OC(=O)C(C)(C)C(=O)O1`, the TGI in the test on 786-0 renal, in the test on HCT-116 colon, with HOP-62 NSCLC, with HS 578T breast, in the test with MDA-MB-231 breast and in the test on OVCAR-8 ovarian was more than 100 µM each time. The TGI in the test with SK-MEL-28 melanoma, with SN12C renal and with SW-620 colon was more than 100 µM throughout.

Take `O=C1[C@@H]2C(c3ccc(Br)cc3)=NO[C@@H]2C(=O)N1c1ccc(Cc2ccc(N3C(=O)[C@H]4C(c5ccc(Br)cc5)=NO[C@H]4C3=O)cc2)cc1`: the TGI in the test on 786-0 renal is more than 3.48 µM; with HCT-116 colon it was more than 40 µM; in the test on HL-60(TB) leukemia, more than 3.48 µM; with HOP-62 NSCLC, more than 3.48 µM; in the test with OVCAR-8 ovarian it was more than 40 µM; in the test with RXF 393 renal it was more than 40 µM. The TGI with SK-MEL-28 melanoma, in the test on SN12C renal and in the test with SW-620 colon was more than 40 µM throughout. The GI50 in the test with OVCAR-8 ovarian, in the test on RXF 393 renal, with SK-MEL-28 melanoma and with SW-620 colon was more than 40 µM each time.

With `N#CC(NNC(=O)Cc1ccccc1)c1cccc(O)c1` (centres undefined), the TGI in the test with 786-0 renal, with HCT-116 colon, in the test on HL-60(TB) leukemia, with HOP-62 NSCLC, in the test with OVCAR-8 ovarian and with RXF 393 renal was more than 100 µM in each case. Besides, the TGI in the test with SK-MEL-28 melanoma, in the test on SN12C renal and in the test on SW-620 colon was more than 100 µM each time.
